Assay results: patent US5068349A, “Mitomycin derivatives” (Kyowa Hakko Kogyo Co., Ltd., priority 1988, dated 1991)
Converted amounts (≈) assume the structure as drawn.

Tests used:
[1] = test system: Klebsiella pneumoniae ATCC 10031; assay: minimum growth inhibitory concentration, agar dilution method (KP); format: cell-based; settings: ATCC10031, pH 7.0
Procedure: (§1) The antibacterial activity of Compounds (I) against various bacteria [minimum growth inhibitory concentration (μ g/ml)] is shown in Table 3.
(§2) The minimum growth inhibitory concentration was determined by the agar dilution method at pH 7.0. In the table, names of bacteria are shown by the following symbols.
KP : Klebsiella pneumoniae ATCC 10031

[2] = test system: Staphylococcus aureus ATCC 6538P; assay: minimum growth inhibitory concentration, agar dilution method (SA); format: cell-based; settings: ATCC6538P, pH 7.0
Procedure: as §1, §2
SA : Staphylococcus aureus ATCC 6538P

[3] = test system: Streptococcus faecium ATCC 10541; assay: minimum growth inhibitory concentration, agar dilution method (SF); format: cell-based; settings: Enterococcus faecium, ATCC10541, pH 7.0
Procedure: as §1, §2
SF : Streptococcus faecium ATCC 10541

[4] = test system: Proteus vulgaris ATCC 6897; assay: minimum growth inhibitory concentration, agar dilution method (PV); format: cell-based; settings: ATCC6897, pH 7.0
Procedure: as §1, §2
PV : Proteus vulgaris ATCC 6897

[5] = Determination of LD50 (single administration, 14 days observation); settings: mouse, in vivo, ddY mice, Behrens Kaerber's method
Procedure: (§3) LD50 and ED50 were determined by the following methods, respectively.
(1) Determination of LD50
Five ddY mice were used for each group, and the test compounds were administered once to the mice intraperitoneally or intravenously. […] LD50 was calculated from the death rate of each group according to the Behrens Kaerber's method.

Sarcoma 180 solid tumor = assay: Determination of ED50 against Sarcoma 180 solid tumor; format: in vivo; settings: Mus musculus, dose at T/C 0.5 (tumor volume, 7 days after implantation), male ddY mice, 24 hours after implantation
Procedure: as §3
(2) Determination of ED50
Sarcoma 180 cells (5×10^6 cells) were implanted intraperitoneally into a ddY mouse and the cells were collected from the ascitic fluid of the animal 7 days after the implantation. The cells were washed once with sterilized physiological saline solution and then suspended in sterilized physiological saline solution to prepare a cell suspension containing 5×10^7 cells/ml. The suspension (0.1 ml) was subcutaneously implanted into the right axilla of male ddY mice weighing 20±2 g.
A test compound was dissolved in physiological saline solution or Tween 80-containing physiological saline solution, and 0.1 to 0.2 ml of the solution was administered to 5 mice as one group intraperitoneally or intravenously 24 hours after the implantation of the tumor cells.
The anti-tumor activity of the test compound was determined by measuring the major axis (a) and the minor axis (b) of the tumor 7 days after the implantation, calculating a value of (a)×(b)^2 /2 corresponding to the volume of the tumor, and calculating a ratio T/C of the volume (T) of the group which received the test compound to the volume (C) of the control group which received no test compound T/C at each dose given was plotted on a graph in which T/C is shown by an ordinary scale on the vertical axis and a dose is shown by a logarithmic scale on the abscissa. The relationship between the dose and T/C was determined to be a straight line by the least-squares method.

[6] = Sarcoma-180, ip, 168 h, intraperitoneal
[7] = Sarcoma-180, 168 h, intravenous

For `COCC1=C(N)C(=O)C2=C(C1=O)N1CC3C(N3C)C1(OC)C2COC(N)=O` (stereo not drawn) [Compound 1, 6-Demethyl-6-methoxymethylporfiromycin], the MIC [1] was 0.63 µg/mL (≈ 1.66 µM), the MIC [2] was 0.31 µg/mL (≈ 0.819 µM) and the MIC [3] was 0.63 µg/mL (≈ 1.66 µM). The MIC [4] was greater than 40 µg/mL.

`COCC1=C(N)C(=O)C2=C(C1=O)N1CC3NC3C1(OC)C2COC(N)=O` (stereo not drawn) [Compound 2, 6-Demethyl-6-methoxymethylmitomycin C] gave an LD50 at 336 h ([5]; ip, intraperitoneal) of 75 mg/kg, an MIC [1] of 0.31 µg/mL (≈ 0.851 µM) and an MIC [2] of 1.3 µg/mL (≈ 3.57 µM). The MIC [3] was 1.3 µg/mL (≈ 3.57 µM), the ED50 (Sarcoma 180 solid tumor; [6]) was 34 mg/kg and the MIC [4] was 1.3 µg/mL (≈ 3.57 µM).

Work on `COCC1=C(OC)C(=O)C2=C(C1=O)N1CC3NC3C1(OC)C2COC(N)=O` (stereo not drawn) [Compound 4, 6-Demethyl-6-methoxymethylmitomycin A] yielded an MIC [1] of 0.63 µg/mL (≈ 1.66 µM), an MIC [2] of 10 µg/mL (≈ 26.4 µM) and an MIC [3] of 10 µg/mL (≈ 26.4 µM). It also gave an MIC [4] of 2.5 µg/mL (≈ 6.59 µM).

Compound `CCCCOCC1=C(N)C(=O)C2=C(C1=O)N1CC3NC3C1(OC)C2COC(N)=O` (stereo not drawn) [Compound 6, 6-Demethyl-6-n-butoxymethylmitomycin C] has an LD50 at 336 h ([5]; ip, intraperitoneal) greater than 50 mg/kg, an MIC [1] of 5 µg/mL (≈ 12.3 µM) and an MIC [2] of 0.63 µg/mL (≈ 1.55 µM). The MIC [3] was 0.31 µg/mL (≈ 0.763 µM) and the ED50 (Sarcoma 180 solid tumor; [6]) was 38 mg/kg.

`COC12C(COC(N)=O)C3=C(C(=O)C(COCc4ccccc4)=C(N)C3=O)N1CC1NC12` (stereo not drawn) [Compound 7, 6-Demethyl-6-benzyloxymethylmitomycin C] gave an LD50 at 336 h ([5]; ip, intraperitoneal) of 60 mg/kg, an MIC [1] of 5 µg/mL (≈ 11.4 µM) and an MIC [2] of 0.63 µg/mL (≈ 1.43 µM). It also gave an MIC [3] of 0.16 µg/mL (≈ 0.363 µM) and an ED50 (Sarcoma 180 solid tumor; [6]) of 25.2 mg/kg.

`COC12C(COC(N)=O)C3=C(C(=O)C(COC(C)C)=C(N)C3=O)N1CC1NC12` (stereo not drawn) [Compound 8, 6-Demethyl-6-isopropoxymethylmitomycin C] gave an LD50 at 336 h ([5]; intravenous) greater than 50 mg/kg, an MIC [1] of 0.63 µg/mL (≈ 1.61 µM) and an MIC [2] of 0.63 µg/mL (≈ 1.61 µM). The MIC [3] was 0.31 µg/mL (≈ 0.79 µM), the ED50 (Sarcoma 180 solid tumor; [7]) was 14.9 mg/kg and the MIC [4] was 40 µg/mL (≈ 102 µM).

Compound `COC12C(COC(N)=O)C3=C(C(=O)C(CO)=C(N)C3=O)N1CC1NC12` (stereo not drawn) [Compound 10, 6-Demethyl-6-hydroxymethylmitomycin C] has an MIC [1] of 1.3 µg/mL (≈ 3.71 µM), an MIC [2] of 5 µg/mL (≈ 14.3 µM) and an MIC [3] of 10 µg/mL (≈ 28.5 µM). It also gave an MIC [4] of 5 µg/mL (≈ 14.3 µM).

With `CCSCC1=C(N)C(=O)C2=C(C1=O)N1CC3NC3C1(OC)C2COC(N)=O` (stereo not drawn) [Compound 11, 6-Demethyl-6-ethylthiomethylmitomycin C] the LD50 at 336 h ([5]; ip, intraperitoneal) was 30 mg/kg, the MIC [1] was 1.3 µg/mL (≈ 3.3 µM) and the MIC [2] was 0.039 µg/mL (≈ 0.0989 µM). The MIC [3] was 0.31 µg/mL (≈ 0.786 µM), the ED50 (Sarcoma 180 solid tumor; [6]) was 11.6 mg/kg and the MIC [4] was 0.16 µg/mL (≈ 0.406 µM).

Compound `COC(=O)CCSCC1=C(N)C(=O)C2=C(C1=O)N1CC3NC3C1(OC)C2COC(N)=O` (stereo not drawn) [Compound 12, 6-Demethyl-6-(2-methoxycarbonylethylthio)methylmitomycin C] has an MIC [1] of 0.31 µg/mL (≈ 0.685 µM), an MIC [2] of 0.31 µg/mL (≈ 0.685 µM) and an MIC [3] of 0.63 µg/mL (≈ 1.39 µM). For the same compound, the MIC [4] was 1.3 µg/mL (≈ 2.87 µM).

`COC12C(COC(N)=O)C3=C(C(=O)C(CSCCO)=C(N)C3=O)N1CC1NC12` (stereo not drawn) [Compound 13, 6-Demethyl-6-(2-hydroxyethylthio)methylmitomycin C] gave an MIC [1] of 5 µg/mL (≈ 12.2 µM), an MIC [2] of 10 µg/mL (≈ 24.4 µM) and an MIC [3] of 10 µg/mL (≈ 24.4 µM). The MIC [4] was 40 µg/mL (≈ 97.5 µM).

Work on `CCCCCCCCCCCCSCC1=C(N)C(=O)C2=C(C1=O)N1CC3NC3C1(OC)C2COC(N)=O` (stereo not drawn) [Compound 14, 6-Demethyl-6-dodecylthiomethylmitomycin C] yielded an MIC [2] of 0.2 µg/mL (≈ 0.374 µM), an MIC [3] of 0.39 µg/mL (≈ 0.729 µM) and an MIC [4] greater than 50 µg/mL.

For `COC12C(COC(N)=O)C3=C(C(=O)C(CSC(C)C)=C(N)C3=O)N1CC1NC12` (stereo not drawn) [Compound 16, 6-Demethyl-6-isopropylthiomethylmitomycin C], the LD50 at 336 h ([5]; intravenous) was 37.5 mg/kg, the MIC [1] was 1.3 µg/mL (≈ 3.18 µM) and the MIC [2] was 0.16 µg/mL (≈ 0.392 µM). The MIC [3] was 0.078 µg/mL (≈ 0.191 µM), the ED50 (Sarcoma 180 solid tumor; [7]) was 8.4 mg/kg and the MIC [4] was 10 µg/mL (≈ 24.5 µM).

Work on `COC12C(COC(N)=O)C3=C(C(=O)C(CSc4ccccc4)=C(N)C3=O)N1CC1NC12` (stereo not drawn) [Compound 17, 6-Demethyl-6-phenylthiomethylmitomycin C] yielded an LD50 at 336 h ([5]; intravenous) of 50 mg/kg, an MIC [1] of 10 µg/mL (≈ 22.6 µM) and an MIC [2] of 20 µg/mL (≈ 45.2 µM). For the same compound, the MIC [3] was 0.31 µg/mL (≈ 0.701 µM), the ED50 (Sarcoma 180 solid tumor; [7]) was 6.1 mg/kg and the MIC [4] was 40 µg/mL (≈ 90.4 µM).

`COC12C(COC(N)=O)C3=C(C(=O)C(CSCc4ccccc4)=C(N)C3=O)N1CC1NC12` (stereo not drawn) [Compound 18, 6-Demethyl-6-benzylthiomethylmitomycin C] showed an LD50 at 336 h ([5]; intravenous) of 56.6 mg/kg, an MIC [1] of 5 µg/mL (≈ 11 µM) and an MIC [2] of 0.16 µg/mL (≈ 0.35 µM). The MIC [3] was 0.039 µg/mL (≈ 0.0854 µM), the ED50 (Sarcoma 180 solid tumor; [7]) was 20.2 mg/kg and the MIC [4] was 40 µg/mL (≈ 87.6 µM).

For `COC12C(COC(N)=O)C3=C(C(=O)C4=C(NCCSC4)C3=O)N1CC1NC12` (stereo not drawn) [Compound 20], the LD50 at 336 h ([5]; intravenous) was 22.5 mg/kg, the MIC [1] was 10 µg/mL (≈ 25.5 µM) and the MIC [2] was 2.5 µg/mL (≈ 6.37 µM). For the same compound, the MIC [3] was 5 µg/mL (≈ 12.7 µM), the ED50 (Sarcoma 180 solid tumor; [7]) was 12.6 mg/kg and the MIC [4] was 40 µg/mL (≈ 102 µM).
